Structures can show the parent of a compound that is named as a salt. Where two headings read alike, the source gives them in different places.
Tests used:
[1] = system: Hep-G2 cells; assay: Cell cytotoxicity CC50; type: cell-based; details: mean of at least two experiments unless (n = 1)
[2] = Liver microsomal stability, human; type: in vitro ADME; details: 1 μM compound, NADPH; for half-life at 1 μM: pooled liver microsomes, pH 7.4, 0.5 mg/mL protein, read-out: Liver Microsomal Stability t1/2
Experimental: (§1) Compounds were subjected to the following assays to investigate liver microsomal stability and hepatocyte stability.
(§2) Pooled liver microsomes were purchased from a reputable commercial supplier and stored at −80° C. prior to use. Microsomes (final protein concentration 0.5 mg/mL), 0.1 M phosphate buffer pH 7.4 and test compound (final substrate concentration 1 μM; final DMSO concentration 0.25%) were pre-incubated at 37° C. prior to the addition of NADPH (final concentration 1 mM) to initiate the reaction. The final incubation volume was 50 μL. A control incubation was included for each compound tested where 0.1 M phosphate buffer pH 7.4 was added instead of NADPH (minus NADPH). Two control compounds were included with each species. All incubations were performed singularly for each test compound. Each compound was incubated for 0, 5, 15, 30 and 45 min. The control (minus NADPH) was incubated for 45 min only. The reactions were stopped by transferring incubate into acetonitrile at the appropriate time points, in a 1:3 ratio. The termination plates are centrifuged at 3,000 rpm for 20 min at 4° C. to precipitate the protein. Following protein precipitation, the sample supernatants were combined in cassettes of up to 4 compounds, internal standard added, and samples analysed by LC-MS/MS. From a plot of In peak area ratio (compound peak area/internal standard peak area) against time, the gradient of the line was determined. Subsequently, half-life (t1/2) and intrinsic clearance (CLint) were calculated.

[3] = Liver microsomal stability, rat; type: in vitro ADME; details: 1 μM compound, NADPH; for half-life at 1 μM: pooled liver microsomes, pH 7.4, 0.5 mg/mL protein, read-out: Liver Microsomal Stability t1/2
Experimental: as §1, §2

[4] = system: RSV A2; assay: RSV plaque reduction assay in Hep-G2 cells; type: cell-based, respiratory syncytial virus (RSV); details: Hep-G2 cells, RSV A2, 2 days, mean of at least two experiments, read-out: RSV A2 Plaque EC50
Experimental: Compounds were subjected to RSV plaque reduction assays according to the following protocol. Plaque EC50 and cell toxicity CC50 values are a mean of at least two experiments and figures are rounded to whole units.
Hep-G2 cells (ECACC, 85011430) were passaged in flasks and seeded in 24-well plates in DMEM containing antibiotics and supplemented with 10% FBS. During inoculation and subsequent incubation, cells were cultured in DMEM containing 2% FBS. 100 plaque forming unit/well of RSV (RSV A2 ECACC, 0709161v) was mixed with eight serial dilutions of compound. Subsequently, 100 μL of the virus/compound mixtures was added to confluent Hep-G2 cell monolayers. The cells and virus/compound mixtures were incubated at 37° C. in a humidified 5% CO2 incubator for 2 h prior to removal of the inoculum and addition of 1 mL of overlay (DMEM containing 2% FBS and 0.8% CMC) containing compound dilutions. The cells and were incubated at 37° C. in a humidified 5% CO2 incubator for 2 days.
Cells were washed with PBS before adding 75/25% v/v EtOH/MeOH, for 3 min. Fixative was removed and plates were washed with PBS. A pre-titrated amount of the primary antibody was added in 200 μL PBS/2% milk powder, and plates incubated for 90 min at 37° C. The plates were washed 3 times with PBS/0.05% Tween20 before addition of rabbit anti-goat horse radish peroxidase in 200 μL PBS/2% milk powder, and incubated for 1 h at 37° C. Following three wash steps with PBS/0.05% Tween20, 200 μL ready-to-use TrueBlue was added and plates were incubated at rt for 10-15 min before washing with water. After removal of water, plates were air-dried in the dark. Plates were scanned and analysed using the Immunospot S6 Macro analyser, which is equipped with BioSpot analysis software for counting immunostained plaques (virospots). Plaque counts were used to calculate % infection relative to the mean of the plaque count in the virus control wells for RSV. The EC50 value was calculated as 50% reduction in signal, respectively, by interpolation of inhibition curves fitted with a 4-parameter nonlinear regression with a variable slope in Dotmatics. Plaque EC50 and cell toxicity CC50 values are a mean of at least two experiments and figures are rounded to whole units.

[5] = Liver microsomal stability, dog; type: in vitro ADME; details: 1 μM compound, NADPH; for half-life at 1 μM: pooled liver microsomes, pH 7.4, 0.5 mg/mL protein, read-out: Liver Microsomal Stability t1/2
Experimental: as §1, §2

[6] = Cell cytotoxicity CC50; type: cell-based; details: human, Hep-G2 cells; mean of at least two experiments unless (n = 1)
[7] = Hepatocyte stability, rat; type: in vitro ADME; details: cryopreserved pooled hepatocytes, 3 μM compound, 60 min, read-out: Liver Hepatocyte Stability t1/2
Experimental: as §1
(§3) Cryopreserved pooled hepatocytes were purchased from a reputable commercial supplier and stored in liquid nitrogen prior to use. Williams E media supplemented with 2 mM L-glutamine and 25 mM HEPES and test compound (final substrate concentration 3 μM; final DMSO concentration 0.25%) are pre-incubated at 37° C. prior to the addition of a suspension of cryopreserved hepatocytes (final cell density 0.5 ×10^6 viable cells/mL in Williams E media supplemented with 2 mM L-glutamine and 25 mM HEPES) to initiate the reaction. The final incubation volume is 500 μL. Two control compounds were included with each species, alongside appropriate vehicle control. The reactions were stopped by transferring 50 μL of incubate to 100 μL acetonitrile containing internal standard at the appropriate time points. Samples were removed at 6 time points (0, 5, 15, 30, 45 and 60 min) over the course of a 60 min experiment. The termination plates were centrifuged at 2500 rpm at 4° C. for 30 min to precipitate the protein.
(§4) Following protein precipitation, the sample supernatants were combined in cassettes of up to 4 compounds and analysed using generic LC-MS/MS conditions. From a plot of In peak area ratio (compound peak area/internal standard peak area) against time, the gradient of the line was determined. Subsequently, half-life (t1/2) and intrinsic clearance (CLint) were calculated.

[8] = In vivo pharmacokinetics in rats (IV and PO); design: species or system Male rats [Sprague Dawley (SD)]; details: male SD rat
Experimental: The pharmacokinetics of compounds were studied in vivo in rats at doses of 1 mg/kg (IV) and 10 mg/kg (PO).
Male rats [Sprague Dawley (SD)] surgically prepared with a jugular vein cannula were treated with experimental compounds via intravenous administration (IV; n=3; 1 mg/kg) or oral administration (PO; n=3; 10 mg/kg). Compounds were formulated as a solution in 40:60 dimethylacetamide:saline (IV administration) and a solution of 10% DMSO, 10% cremaphor in water (80%) (PO administration). […] Serial blood samples were collected via the cannula at 0.02, 0.08, 0.25, 0.5, 1, 2, 4, 6, 8 and 24 h post IV dosing of compound, and at 0.08, 0.25, 0.5, 1, 2, 4, 6, 8 and 24 h post oral dosing of compound, and plasma was prepared by centrifugation and stored immediately at −80° C. Samples were subsequently thawed, prepared for analysis by protein precipitation with acetonitrile, and analysed by tandem LCMS using electrospray ionisation using a matrix-matched calibration curve. PK parameters were calculated from the resulting data.

[9] = Hepatocyte stability, dog; type: in vitro ADME; details: cryopreserved pooled hepatocytes, 3 μM compound, 60 min, read-out: Liver Hepatocyte Stability t1/2
Experimental: as §1, §3, §4

[10] = Hepatocyte stability, human; type: in vitro ADME; details: cryopreserved pooled hepatocytes, 3 μM compound, 60 min, read-out: Liver Hepatocyte Stability t1/2
Experimental: as §1, §3, §4

[11] = human respiratory syncytial virus, HepG2, 48 h
[12] = Sprague Dawley, plasma, study IV 1 mg/kg, PO 10 mg/kg

Compound | CC50 [1] | EC50 [4] | CC50 [6] | half-life at 1 μM [2] | half-life at 1 μM [3] | EC50 [4, 11] | half-life at 1 μM [5] | other results
2-[2-Fluoro-4-(hydroxymethyl)phenyl]-N-[(3S)-2-oxo-5-phenyl-1,3-dihydro-1,4-benzodiazepin-3-yl]pyrazolo[1,5-a]pyrimidine-3-carboxamide [Example 2] | > 25 µM | 0.04 µM | – | – | – | – | – | Liver Microsomal Stability t1/2 ([2]; human liver microsomes, 0.5 mg/mL protein): 1.95 h; Liver Microsomal Stability t1/2 ([3]; rat liver microsomes, 0.5 mg/mL protein): 0.957 h; Liver Microsomal Stability t1/2 ([5]; dog liver microsomes, 0.5 mg/mL protein): 0.887 h
CC(O)c1ccc(-c2nn3cccnc3c2C(=O)N[C@H]2N=C(c3ccccc3)c3ccccc3NC2=O)c(F)c1 (single isomer, unassigned) [Example 16-2, 2-[2-Fluoro-4-[(1R*)-1-hydroxyethyl]phenyl]-N-[(3S)-2-oxo-5-phenyl-1,3-dihydro-1,4-benzodiazepin-3-yl]pyrazolo[1,5-a]pyrimidine-3-carboxamide] | > 2.5 µM | 0.011 µM | – | – | – | – | – | –
CC(O)c1ccc(-c2nn3cccnc3c2C(=O)N[C@H]2N=C(c3ccccc3)c3cccc(F)c3NC2=O)c(F)c1 (single isomer, unassigned) [Example 17-2, 2-[2-Fluoro-4-[(1R*)-1-hydroxyethyl]phenyl]-N-[(3S)-9-fluoro-2-oxo-5-phenyl-1,3-dihydro-1,4-benzodiazepin-3-yl]pyrazolo[1,5-a]pyrimidine-3-carboxamide] | > 2.5 µM | 0.0078 µM | – | – | – | – | – | –
O=C(N[C@H]1N=C(c2ccccc2)c2cccc(F)c2NC1=O)c1c(-c2cnn(CC(F)(F)F)c2)nn2cccnc12 [Example 3, N-[(3S)-9-fluoro-2-oxo-5-phenyl-1,3-dihydro-1,4-benzodiazepin-3-yl]-2-[1-(2,2,2-trifluoroethyl)pyrazol-4-yl]pyrazolo[1,5-a]pyrimidine-3-carboxamide] | – | – | > 25 µM | > 2.33 h | 3.48 h | 0.066 µM | 1.78 h | –
O=C(N[C@H]1N=C(c2ccccc2)c2cccc(F)c2NC1=O)c1c(-c2cnn(C3CCOCC3)c2)nn2cccnc12 [Example 6, N-[(3S)-9-fluoro-2-oxo-5-phenyl-1,3-dihydro-1,4-benzodiazepin-3-yl]-2-[1-(oxan-4-yl)pyrazol-4-yl]pyrazolo[1,5-a]pyrimidine-3-carboxamide] | – | – | > 25 µM | 4.32 h | 1.42 h | 0.049 µM | 2.07 h | –
CS(=O)(=O)c1ccc(-c2nn3cccnc3c2C(=O)N[C@H]2N=C(c3ccccc3)c3cccc(F)c3NC2=O)c(F)c1 [Example 7, 2-(2-Fluoro-4-methylsulfonylphenyl)-N-[(3S)-9-fluoro-2-oxo-5-phenyl-1,3-dihydro-1,4-benzodiazepin-3-yl]pyrazolo[1,5-a]pyrimidine-3-carboxamide] | – | – | > 25 µM | – | – | 0.009 µM | – | half-life at 3 μM [7]: 85.7 h; half-life ([8]; Sprague Dawley, plasma, IV 1 mg/kg, read-out: IV t1/2 (converted)): 1.6 h; half-life ([8]; Sprague Dawley, plasma, PO 10 mg/kg, read-out: PO t1/2 (converted)): 2.5 h; Vd [8, 12]: 1.4 L/kg; clearance [8, 12]: 13.1 mL/min/kg; Cmax ([8]; Sprague Dawley, plasma, study IV 1 mg/kg, PO 10 mg/kg, route not given): 2340 ng/mL; AUC(0-t) ([8]; Sprague Dawley, PO 10 mg/kg, plasma, read-out: PO AUClast): 24800 ng·h/mL; F ([8]; PO 10 mg/kg vs IV 1 mg/kg): 188%; half-life at 3 μM [9]: 0.95 h; half-life at 3 μM [10]: 6.28 h
CCn1cc(-c2nn3cccnc3c2C(=O)N[C@H]2N=C(c3ccccc3)c3cccc(F)c3NC2=O)cn1 [Example 13, 2-(1-Ethylpyrazol-4-yl)-N-[(3S)-9-fluoro-2-oxo-5-phenyl-1,3-dihydro-1,4-benzodiazepin-3-yl]pyrazolo[1,5-a]pyrimidine-3-carboxamide] | – | – | > 25 µM | 8.93 h | 7.52 h | 0.058 µM | 6.82 h | –
CC(C)(O)c1ccc(-c2nn3cccnc3c2C(=O)N[C@H]2N=C(c3ccccc3)c3cccc(F)c3NC2=O)c(F)c1 [Example 19, 2-[2-Fluoro-4-(2-hydroxypropan-2-yl)phenyl]-N-[(3S)-9-fluoro-2-oxo-5-phenyl-1,3-dihydro-1,4-benzodiazepin-3-yl]pyrazolo[1,5-a]pyrimidine-3-carboxamide] | – | – | > 25 µM | 2.82 h | 2.43 h | 0.0085 µM | 1.22 h | –
NCC(=O)OCc1ccc(-c2nn3cccnc3c2C(=O)N[C@H]2N=C(c3ccccc3)c3ccccc3NC2=O)c(F)c1 [Example 29, 3-Fluoro-4-(3-{[(3S)-2-oxo-5-phenyl-1,3-dihydro-1,4-benzodiazepin-3-yl]carbamoyl}pyrazolo[1,5-a]pyrimidin-2-yl)phenyl]methyl aminoacetate hydrochloride] | > 25 µM | 0.049 µM | – | – | – | – | – | –

— US20240173332A1, “BENZO[…] TREATING OR PREVENTING RESPIRATORY SYNCYTIAL VIRUS INFECTION” (Pfizer Inc., priority 2021, published 2024)
